Results as given in ChEMBL document CHEMBL1146065, “Structure-based optimization of azole antifungal agents by CoMFA, CoMSIA, and molecular docking” (2006).
In brackets after ≈: the same amount, converted by molar mass.

Columns and labels:
Assay type in all cases: functional
Candida tropicalis = assay: Antifungal activity against Candida tropicalis
Cryptococcus neoformans = assay: Antifungal activity against Cryptococcus neoformans
Fonsecaea pedrosoi = assay: Antifungal activity against Fonsecaea pedrosoi
Trichophyton rubrum = assay: Antifungal activity against Trichophyton rubrum
Sporothrix schenckii = assay: Antifungal activity against Sporothrix schenckii
Aspergillus fumigatus = assay: Antifungal activity against Aspergillus fumigatus
Candida albicans = assay: Antifungal activity against Candida albicans
Candida parapsilosis = assay: Antifungal activity against Candida parapsilosis; conditions: Lodderomyces parapsilosis

MIC80 (Candida tropicalis) | MIC80 (Cryptococcus neoformans) | MIC80 (Fonsecaea pedrosoi) | MIC80 (Trichophyton rubrum) | MIC80 (Sporothrix schenckii) | MIC80 (Aspergillus fumigatus) | MIC80 (Candida albicans) | MIC80 (Candida parapsilosis) | Compound
0.125 µg/mL (≈ 0.212 µM) | 8 µg/mL (≈ 13.6 µM) | 1 µg/mL (≈ 1.7 µM) | 4 µg/mL (≈ 6.78 µM) | 64 µg/mL (≈ 109 µM) | 32 µg/mL (≈ 54.3 µM) | 0.016 µg/mL | 0.03 µg/mL (≈ 0.0509 µM) | COc1ccc(C(=O)Cn2ncn(-c3ccc(CN(C)CC(O)(Cn4cncn4)c4ccc(F)cc4F)cc3)c2=O)cc1 (stereo unspecified)
0.0625 µg/mL (≈ 0.11 µM) | 0.5 µg/mL (≈ 0.883 µM) | 0.125 µg/mL (≈ 0.221 µM) | 0.5 µg/mL (≈ 0.883 µM) | 64 µg/mL (≈ 113 µM) | 4 µg/mL (≈ 7.07 µM) | 0.002 µg/mL | 0.008 µg/mL (≈ 0.0141 µM) | CN(Cc1ccc(-n2cnn(Cc3ccc(Cl)cc3)c2=O)cc1)CC(O)(Cn1cncn1)c1ccc(F)cc1F (stereo unspecified)
0.0625 µg/mL (≈ 0.104 µM) | 0.008 µg/mL (≈ 0.0133 µM) | 0.125 µg/mL (≈ 0.208 µM) | 0.25 µg/mL (≈ 0.416 µM) | 4 µg/mL (≈ 6.66 µM) | 2 µg/mL (≈ 3.33 µM) | 0.002 µg/mL | 0.008 µg/mL (≈ 0.0133 µM) | CN(Cc1ccc(-n2cnn(Cc3ccc(Cl)cc3Cl)c2=O)cc1)CC(O)(Cn1cncn1)c1ccc(F)cc1F (stereo unspecified)
 |  |  |  |  |  | 0.558 µM |  | OC(CN1CCN(Cc2ccccc2Cl)CC1)(Cn1cncn1)c1ccc(F)cc1F (stereo unspecified)
 |  |  |  |  |  | 0.156 µM |  | OC(CN1CCN(c2ccccn2)CC1)(Cn1cncn1)c1ccc(F)cc1F (stereo unspecified)
1 µg/mL (≈ 1.82 µM) | 4 µg/mL (≈ 7.28 µM) | 1 µg/mL (≈ 1.82 µM) | 8 µg/mL (≈ 14.6 µM) | 32 µg/mL (≈ 58.2 µM) | 64 µg/mL (≈ 116 µM) | 0.004 µg/mL | 4 µg/mL (≈ 7.28 µM) | CN(Cc1ccc(-n2cnn(Cc3ccc(F)cc3)c2=O)cc1)CC(O)(Cn1cncn1)c1ccc(F)cc1F (stereo unspecified)
 |  |  |  |  |  | 1.03 µM |  | CC(C)(C)c1ccc(C(=O)N2CCN(CC(O)(Cn3cncn3)c3ccc(F)cc3F)CC2)cc1 (stereo unspecified)
0.5 µg/mL (≈ 1.34 µM) | 8 µg/mL (≈ 21.4 µM) | 4 µg/mL (≈ 10.7 µM) | 16 µg/mL (≈ 42.8 µM) | 64 µg/mL (≈ 171 µM) | 64 µg/mL (≈ 171 µM) | 0.0625 µg/mL | 2 µg/mL (≈ 5.36 µM) | CN(Cc1ccc(N)cc1)CC(O)(Cn1cncn1)c1ccc(F)cc1F (stereo unspecified)
 |  |  |  |  |  | 18.1 µM |  | Cc1ccc(C(=O)N2CCN(CC(O)(Cn3cncn3)c3ccc(F)cc3F)CC2)cc1 (stereo unspecified)
0.0625 µg/mL (≈ 0.114 µM) | 1 µg/mL (≈ 1.82 µM) | 0.0625 µg/mL (≈ 0.114 µM) | 1 µg/mL (≈ 1.82 µM) | 64 µg/mL (≈ 116 µM) | 32 µg/mL (≈ 58.2 µM) | 0.031 µg/mL | 2 µg/mL (≈ 3.64 µM) | CN(Cc1ccc(-n2cnn(Cc3ccccc3F)c2=O)cc1)CC(O)(Cn1cncn1)c1ccc(F)cc1F (stereo unspecified)
0.0625 µg/mL (≈ 0.108 µM) | 16 µg/mL (≈ 27.8 µM) | 4 µg/mL (≈ 6.94 µM) | 16 µg/mL (≈ 27.8 µM) | 64 µg/mL (≈ 111 µM) | 64 µg/mL (≈ 111 µM) | 0.0625 µg/mL | 0.25 µg/mL (≈ 0.434 µM) | CN(Cc1ccc(-n2cnn(Cc3ccc([N+](=O)[O-])cc3)c2=O)cc1)CC(O)(Cn1cncn1)c1ccc(F)cc1F (stereo unspecified)
 |  |  |  |  |  | 0.116 µM |  | OC(CN1CCN(Cc2ccc(I)cc2)CC1)(Cn1cncn1)c1ccc(F)cc1F (stereo unspecified)
 |  |  |  |  |  | 0.0339 µM |  | CC(=O)c1ccc(N2CCN(CC(O)(Cn3cncn3)c3ccc(F)cc3F)CC2)cc1 (stereo unspecified)
 |  |  |  |  |  | 0.032 µM |  | OC(CN1CCN(c2cccc(C(F)(F)F)c2)CC1)(Cn1cncn1)c1ccc(F)cc1F (stereo unspecified)
 |  |  |  |  |  | 0.292 µM |  | Cc1cccc(CN2CCN(CC(O)(Cn3cncn3)c3ccc(F)cc3F)CC2)c1 (stereo unspecified)
 |  |  |  |  |  | 0.566 µM |  | CCc1ccc(CN2CCN(CC(O)(Cn3cncn3)c3ccc(F)cc3F)CC2)cc1 (stereo unspecified)
0.0625 µg/mL (≈ 0.102 µM) | 0.008 µg/mL (≈ 0.0131 µM) | 0.0625 µg/mL (≈ 0.102 µM) | 0.25 µg/mL (≈ 0.41 µM) | 64 µg/mL (≈ 105 µM) | 8 µg/mL (≈ 13.1 µM) | 0.002 µg/mL | 0.008 µg/mL (≈ 0.0131 µM) | CN(Cc1ccc(-n2cnn(Cc3ccc(Br)cc3)c2=O)cc1)CC(O)(Cn1cncn1)c1ccc(F)cc1F (stereo unspecified)
0.125 µg/mL (≈ 0.199 µM) | 0.125 µg/mL (≈ 0.199 µM) | 0.25 µg/mL (≈ 0.398 µM) | 1 µg/mL (≈ 1.59 µM) | 64 µg/mL (≈ 102 µM) | 16 µg/mL (≈ 25.5 µM) | 0.004 µg/mL | 0.008 µg/mL (≈ 0.0127 µM) | CN(Cc1ccc(-n2cnn(Cc3ccc(F)cc3Br)c2=O)cc1)CC(O)(Cn1cncn1)c1ccc(F)cc1F (stereo unspecified)
 |  |  |  |  |  | 2.34 µM |  | O=C(c1ccccc1)N1CCN(CC(O)(Cn2cncn2)c2ccc(F)cc2F)CC1 (stereo unspecified)
0.0625 µg/mL (≈ 0.108 µM) | 1 µg/mL (≈ 1.73 µM) | 0.0625 µg/mL (≈ 0.108 µM) | 2 µg/mL (≈ 3.46 µM) | 64 µg/mL (≈ 111 µM) | 64 µg/mL (≈ 111 µM) | 0.004 µg/mL | 0.06 µg/mL (≈ 0.104 µM) | CN(Cc1ccc(-n2cnn(CC(=O)c3ccc(F)cc3)c2=O)cc1)CC(O)(Cn1cncn1)c1ccc(F)cc1F (stereo unspecified)
1 µg/mL (≈ 1.88 µM) | 64 µg/mL (≈ 120 µM) | 0.5 µg/mL (≈ 0.941 µM) | 16 µg/mL (≈ 30.1 µM) | 64 µg/mL (≈ 120 µM) | 64 µg/mL (≈ 120 µM) | 0.031 µg/mL | 0.016 µg/mL (≈ 0.0301 µM) | CN(Cc1ccc(-n2cnn(Cc3ccccc3)c2=O)cc1)CC(O)(Cn1cncn1)c1ccc(F)cc1F (stereo unspecified)
0.125 µg/mL (≈ 0.221 µM) | 1 µg/mL (≈ 1.77 µM) | 0.5 µg/mL (≈ 0.883 µM) | 4 µg/mL (≈ 7.07 µM) | 32 µg/mL (≈ 56.5 µM) | 32 µg/mL (≈ 56.5 µM) | 0.004 µg/mL | 0.06 µg/mL (≈ 0.106 µM) | CN(Cc1ccc(-n2cnn(Cc3ccccc3Cl)c2=O)cc1)CC(O)(Cn1cncn1)c1ccc(F)cc1F (stereo unspecified)
 |  |  |  |  |  | 36.2 µM |  | Nc1ccc(C(=O)N2CCN(CC(O)(Cn3cncn3)c3ccc(F)cc3F)CC2)cc1 (stereo unspecified)
0.0312 µg/mL (≈ 0.0545 µM) | 0.125 µg/mL (≈ 0.218 µM) | 0.125 µg/mL (≈ 0.218 µM) | 1 µg/mL (≈ 1.74 µM) | 64 µg/mL (≈ 112 µM) | 16 µg/mL (≈ 27.9 µM) | 0.002 µg/mL | 0.008 µg/mL (≈ 0.0139 µM) | Cc1ccc(C(=O)Cn2ncn(-c3ccc(CN(C)CC(O)(Cn4cncn4)c4ccc(F)cc4F)cc3)c2=O)cc1 (stereo unspecified)
 |  |  |  |  |  | 2.23 µM |  | O=C(c1ccc(F)cc1)N1CCN(CC(O)(Cn2cncn2)c2ccc(F)cc2F)CC1 (stereo unspecified)
 |  |  |  |  |  | 0.0357 µM |  | OC(CN1CCN(Cc2ccc(Cl)cc2)CC1)(Cn1cncn1)c1ccc(F)cc1F (stereo unspecified)
0.5 µg/mL (≈ 0.916 µM) | 1 µg/mL (≈ 1.83 µM) | 0.25 µg/mL (≈ 0.458 µM) | 1 µg/mL (≈ 1.83 µM) | 64 µg/mL (≈ 117 µM) | 32 µg/mL (≈ 58.7 µM) | 0.002 µg/mL | 0.125 µg/mL (≈ 0.229 µM) | Cc1ccc(Cn2ncn(-c3ccc(CN(C)CC(O)(Cn4cncn4)c4ccc(F)cc4F)cc3)c2=O)cc1 (stereo unspecified)
0.0625 µg/mL (≈ 0.112 µM) | 8 µg/mL (≈ 14.3 µM) | 1 µg/mL (≈ 1.79 µM) | 8 µg/mL (≈ 14.3 µM) | 64 µg/mL (≈ 114 µM) | 64 µg/mL (≈ 114 µM) | 0.016 µg/mL | 0.008 µg/mL (≈ 0.0143 µM) | CN(Cc1ccc(-n2cnn(CC(=O)c3ccccc3)c2=O)cc1)CC(O)(Cn1cncn1)c1ccc(F)cc1F (stereo unspecified)
0.5 µg/mL (≈ 0.851 µM) | 16 µg/mL (≈ 27.2 µM) | 8 µg/mL (≈ 13.6 µM) | 32 µg/mL (≈ 54.5 µM) | 64 µg/mL (≈ 109 µM) | 64 µg/mL (≈ 109 µM) | 0.25 µg/mL | 2 µg/mL (≈ 3.4 µM) | CCc1ccc(C(=O)Cn2ncn(-c3ccc(CN(C)CC(O)(Cn4cncn4)c4ccc(F)cc4F)cc3)c2=O)cc1 (stereo unspecified)
